Measured values as given in US12091425B2 (AMGEN INC., priority 2016, dated 2024).

Assays:
[1] = biological target: T1, Mcl-1/Bim interaction, recombinant human Mcl-1 (171-327) (Homo sapiens, UniProt Q07820); assay: Cell free Mcl-1: Bim Affinity Assay (Mcl-1 HTRF); format: binding; settings: TR-FRET, 0.1 nM Mcl-1 (171-327), 0.05 nM biotin-Bim (51-76)
T1 construct: made in house
Outline: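 Compounds were mixed with the protein and a biotinylated Bim peptide spanning human residues 51-76. Plates were left overnight, then TR-FRET signal was measured. A four-parameter sigmoidal model applied to duplicate competition data gave IC50.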

[2] = test system: OPM-2 human multiple myeloma cell line; assay: Cell Viability Assay (OPM-2 10 FBS); format: cell-based; settings: Homo sapiens, OPM-2, 16 h, OPM-2 cells, 16 h, CellTiter-Glo
Outline: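 Plated at 3000 cells/well in 10% FBS complete medium, the cells received a serial compound dilution series and incubated 16 h at 37 °C with 5% CO2. CellTiter-Glo was then added; IC50 values were fitted with a logistic 4-parameter model.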

T1 sequence (Q07820 171-327): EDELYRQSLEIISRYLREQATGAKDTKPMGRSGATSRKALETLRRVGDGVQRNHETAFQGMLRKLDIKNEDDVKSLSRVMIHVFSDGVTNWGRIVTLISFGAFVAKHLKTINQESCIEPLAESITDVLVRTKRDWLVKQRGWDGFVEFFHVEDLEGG

Structure (SMILES)	IC50 [1]	IC50 [2]
CCN1CC/C=C/[C@H](OCC(=O)N2CCCC2)[C@@H]2CC[C@H]2CN2C[C@@]3(CCCc4cc(Cl)ccc43)COc3ccc(cc32)C(=O)NS1(=O)=O [Example 89, (1S,3′R,6′R,7′S,8′E)-6-chloro-12′-ethyl-7′-(2-oxo-2-(1-pyrrolidinyl)ethoxy)-3,4-dihydro-2H,15′H-spiro[naphthalene-1,22′-[20]oxa[13]thia[1,12,14]triazatetracyclo[14.7.2.0^3,6.0^19,24]pentacosa[8,16,18,24]tetraen]-15′-one 13′,13′-dioxide]	0.666 nM	798 nM
COCCO[C@H]1/C=C/C[C@@H]2CC[C@H]2S(=O)(=O)NC(=O)c2ccc3c(c2)N(C[C@@H]2CC[C@H]21)C[C@@]1(CCCc2cc(Cl)ccc21)CO3 [Example 93, (1S,3′R,6′R,7′S,8′E,11′S,14′R)-6-chloro-7′-(2-methoxyethoxy)-3,4-dihydro-2H,17′H-spiro[naphthalene-1,24′-[22]oxa[15]thia[1,16]diazapentacyclo[16.7.2.0^3,6.0^11,14.0^21,26]heptacosa[8,18,20,26]tetraen]-17′-one 15′,15′-dioxide]	0.494 nM	402 nM
Cn1cnc(CO[C@H]2/C=C/C[C@H]3CC[C@@H]3S(=O)(=O)NC(=O)c3ccc4c(c3)N(C[C@@H]3CC[C@H]32)C[C@@]2(CCCc3cc(Cl)ccc32)CO4)n1 [Example 94, (1S,3′R,6′R,7′S,8′E,11′R,14′S)-6-chloro-7′-((1-methyl-1H-1,2,4-triazol-3-yl)methoxy)-3,4-dihydro-2H,17′H-spiro[naphthalene-1,24′-[22]oxa[15]thia[1,16]diazapentacyclo[16.7.2.0^3,6.0^11,14.0^21,26]heptacosa[8,18,20,26]tetraen]-17′-one 15′,15′-dioxide]	0.467 nM	432 nM
CO[C@H]1/C=C/C[C@H]2CC[C@@H]2S(=O)(=O)NC(=O)c2ccc3c(c2)N(C[C@@H]2CC[C@H]21)C[C@@]1(CCCc2cc(Cl)ccc21)CO3 [Example 95, (1S,3′R,6′R,7′S,8′E,11′R,14′S)-6-chloro-7′-methoxy-3,4-dihydro-2H,17′H-spiro[naphthalene-1,24′-[22]oxa[15]thia[1,16]diazapentacyclo[16.7.2.0^3,6.0^11,14.0^21,26]heptacosa[8,18,20,26]tetraen]-17′-one 15′,15′-dioxide]	0.46 nM	572 nM
O=C1NS(=O)(=O)[C@H]2C[C@@H](CC[C@H](O)[C@@H]3CC[C@H]3CN3C[C@@]4(CCCc5cc(Cl)ccc54)COc4ccc1cc43)C2 [Example 101, (1S,3′R,6′R,7′S,10′S,12′S)-6-chloro-7′-hydroxy-3,4-dihydro-2H,15′H-spiro[naphthalene-1,22′-[20]oxa[13]thia[1,14]diazapentacyclo[14.7.2.1^10,120^3,6.0^19,24]hexacosa[16,18,24]trien]-15′-one 13′,13′-dioxide]	2.58 nM	13000 nM
O=C1NS(=O)(=O)[C@H]2C[C@H](/C=C/[C@H](O)[C@@H]3CC[C@H]3CN3C[C@@]4(CCCc5cc(Cl)ccc54)COc4ccc1cc43)C2 [Example 102, (1S,3′R,6′R,7′S,8′E,10′R,12′S)-6-chloro-7′-hydroxy-3,4-dihydro-2H,15′H-spiro[naphthalene-1,22′-[20]oxa[13]thia[1,14]diazapentacyclo[14.7.2.1^10,12.0^3,6.0^19,24]hexacosa[8,16,18,24]tetraen]-15′-one 13′,13′-dioxide]	2.73 nM	18600 nM
C[C@@H]1[C@@H](C)C[C@H](CCO)/C=C/[C@@H]2CC[C@H]2CN2C[C@@]3(CCCc4cc(Cl)ccc43)COc3ccc(cc32)C(=O)NS1(=O)=O [Example 113, (1S,3′R,6′S,7′E,9′R,11′S,12′R)-6-chloro-9′-(2-hydroxyethyl)-11′,12′-dimethyl-3,4-dihydro-2H,15′H-spiro[naphthalene-1,22′-[20]oxa[13]thia[1,14]diazatetracyclo[14.7.2.0^3,6.0^19,24]pentacosa[7,16,18,24]tetraen]-15′-one 13′,13′-dioxide]	0.998 nM	1150 nM
COCC[C@@H]1/C=C/[C@@H]2CC[C@H]2CN2C[C@@]3(CCCc4cc(Cl)ccc43)COc3ccc(cc32)C(=O)NS(=O)(=O)[C@H](C)[C@@H](C)C1 [Example 114, (1S,3′R,6′S,7′E,9′R,11′S,12′R)-6-chloro-9′-(2-methoxyethyl)-11′,12′-dimethyl-3,4-dihydro-2H,15′H-spiro[naphthalene-1,22′-[20]oxa[13]thia[1,14]diazatetracyclo[14.7.2.0^3,6.0^19,24]pentacosa[7,16,18,24]tetraen]-15′-one 13′,13′-dioxide]	3.6 nM	3400 nM
CO[C@H]1/C=C/[C@H](CCO)C[C@@H](C)S(=O)(=O)NC(=O)c2ccc3c(c2)N(C[C@@H]2CC[C@H]21)C[C@@]1(CCCc2cc(Cl)ccc21)CO3 [Example 202, (1S,3′R,6′R,7′S,8′E,10′R,12′R)-6-chloro-10′-(2-hydroxyethyl)-7′-methoxy-12′-methyl-3,4-dihydro-2H,15′H-spiro[naphthalene-1,22′-[20]oxa[13]thia[1,14]diazatetracyclo[14.7.2.0^3,6.0^19,24]pentacosa [8,16,18,24]tetraen]-15′-one 13′,13′-dioxide]	0.218 nM	566 nM

Next, values leading:

IC50 [1]	IC50 [2]	Structure (SMILES)
0.366 nM	2790 nM	CO[C@H]1/C=C/[C@H](CC#N)C[C@@H](C)S(=O)(=O)NC(=O)c2ccc3c(c2)N(C[C@@H]2CC[C@H]21)C[C@@]1(CCCc2cc(Cl)ccc21)CO3 [Example 203, ((1S,3′R,6′R,7′S,8′E,10′R,12′R)-6-chloro-7′-methoxy-12′-methyl-13′,13′-dioxido-15′-oxo-3,4-dihydro-2H-spiro[naphthalene-1,22′-[20]oxa[13]thia[1,14]diazatetracyclo[14.7.2.0^3,6.0^19,24]pentacosa [8,16,18,24]tetraen]-10′-yl)acetonitrile]
0.732 nM	686 nM	COCC[C@H]1/C=C/[C@H](OC)[C@@H]2CC[C@H]2CN2C[C@@]3(CCCc4cc(Cl)ccc43)COc3ccc(cc32)C(=O)NS(=O)(=O)[C@H](C)C1 [Example 204, (1S,3′R,6′R,7′S,8′E,10′R,12′R)-6-chloro-7′-methoxy-10′-(2-methoxyethyl)-12′-methyl-3,4-dihydro-2H,15′H-spiro[naphthalene-1,22′-[20]oxa[13]thia[1,14]diazatetracyclo[14.7.2.0^3,6.0^19,24]pentacosa [8,16,18,24]tetraen]-15′-one 13′,13′-dioxide]
5.25 nM	5370 nM	CCO[C@@H]1/C=C/CCCS(=O)(=O)NC(=O)c2ccc3c(c2)N(C[C@@H]2CC[C@H]21)C[C@@]1(CCCc2cc(Cl)ccc21)CO3 [Example 209, (1S,3′R,6′R,7′R,8′E)-6-chloro-7′-ethoxy-3,4-dihydro-2H,15′H-spiro[naphthalene-1,22′-[20]oxa[13]thia[1,14]diazatetracyclo[14.7.2.0^3,6.0^19,24]pentacosa [8,16,18,24]tetraen]-15′-one 13′,13′-dioxide]
1.59 nM	1530 nM	COCCO[C@@H]1/C=C/CCCS(=O)(=O)NC(=O)c2ccc3c(c2)N(C[C@@H]2CC[C@H]21)C[C@@]1(CCCc2cc(Cl)ccc21)CO3 [Example 210, (1S,3′R,6′R,7′R,8′E)-6-chloro-7′-(2-methoxyethoxy)-3,4-dihydro-2H,15′H-spiro[naphthalene-1,22′-[20]oxa[13]thia[1,14]diazatetracyclo[14.7.2.0^3,6.0^19,24]pentacosa [8,16,18,24]tetraen]-15′-one 13′,13′-dioxide]
1.11 nM	2370 nM	CN(C)C(=O)CCO[C@@H]1/C=C/CCCS(=O)(=O)NC(=O)c2ccc3c(c2)N(C[C@@H]2CC[C@H]21)C[C@@]1(CCCc2cc(Cl)ccc21)CO3 [Example 211, 3-(((1S,3′R,6′R,7′R,8′E)-6-chloro-13′,13′-dioxido-15′-oxo-3,4-dihydro-2H-spiro[naphthalene-1,22′-[20]oxa[13]thia[1,14]diazatetracyclo[14.7.2.0^3,6.0^19,24]pentacosa [8,16,18,24]tetraen]-7′-yl)oxy)-N,N-dimethylpropanamide]
2.96 nM	18200 nM	CN(C)CCNC(=O)CO[C@@H]1/C=C/CCCS(=O)(=O)NC(=O)c2ccc3c(c2)N(C[C@@H]2CC[C@H]21)C[C@@]1(CCCc2cc(Cl)ccc21)CO3 [Example 212, 2-(((1S,3′R,6′R,7′R,8′E)-6-chloro-13′,13′-dioxido-15′-oxo-3,4-dihydro-2H-spiro[naphthalene-1,22′-[20]oxa[13]thia[1,14]diazatetracyclo[14.7.2.0^3,6.0^19,24]pentacosa [8,16,18,24]tetraen]-7′-yl)oxy)-N-(2-(dimethylamino)ethyl)acetamide]
1.08 nM	835 nM	O=C1NS(=O)(=O)CCC/C=C/[C@@H](OCCN2CCOCC2)[C@@H]2CC[C@H]2CN2C[C@@]3(CCCc4cc(Cl)ccc43)COc3ccc1cc32 [Example 213, (1S,3′R,6′R,7′R,8′E)-6-chloro-7′-(2-(4-morpholinyl)ethoxy)-3,4-dihydro-2H,15′H-spiro[naphthalene-1,22′-[20]oxa[13]thia[1,14]diazatetracyclo[14.7.2.0^3,6.0^19,24]pentacosa [8,16,18,24]tetraen]-15′-one 13′,13′-dioxide]
12.3 nM	2280 nM	Cc1noc(C)c1CO[C@@H]1/C=C/CCCS(=O)(=O)NC(=O)c2ccc3c(c2)N(C[C@@H]2CC[C@H]21)C[C@@]1(CCCc2cc(Cl)ccc21)CO3 [Example 214, (1S,3′R,6′R,7′R,8′E)-6-chloro-7′-((3,5-dimethyl-4-isoxazolyl)methoxy)-3,4-dihydro-2H,15′H-spiro[naphthalene-1,22′-[20]oxa[13]thia[1,14]diazatetracyclo[14.7.2.0^3,6.0^19,24]pentacosa [8,16,18,24]tetraen]-15′-one 13′,13′-dioxide]
